pEC50: −log10 of the molar value.
What follows are compounds tested against β2 adrenergic receptor (Homo sapiens (Human), UniProt P07550) (assay: cAMP Gs dynamic HTRF assay, β2 expressing CHO cells). Details: B2-AR; CHO-K1 (HitHunter); read-out: Average pEC50 [Receptor subtype: B2-AR; Cell type: CHO-K1 (HitHunter)] (converted).
Chain of β2 adrenergic receptor (P07550 whole entry, species assumed): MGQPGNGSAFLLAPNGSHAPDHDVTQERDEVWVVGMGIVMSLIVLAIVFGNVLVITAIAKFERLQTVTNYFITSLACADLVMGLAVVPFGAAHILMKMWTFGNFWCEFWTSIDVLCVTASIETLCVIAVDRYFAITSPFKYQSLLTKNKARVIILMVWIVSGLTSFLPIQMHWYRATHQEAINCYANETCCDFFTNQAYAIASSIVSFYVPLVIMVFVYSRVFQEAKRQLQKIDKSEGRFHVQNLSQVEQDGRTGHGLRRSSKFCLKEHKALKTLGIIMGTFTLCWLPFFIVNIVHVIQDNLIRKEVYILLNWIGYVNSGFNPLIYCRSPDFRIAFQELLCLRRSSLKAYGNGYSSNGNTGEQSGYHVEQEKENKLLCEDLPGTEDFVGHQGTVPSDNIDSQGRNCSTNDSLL
Format: cell-based
Outline: (§1)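 Intracellular cAMP quantified by Eu-donor/d2-acceptor HTRF after 30 min compound exposure at 37° C in stimulation buffer with IBMX. Concentrations ran 10 μM top, 5-fold steps, 10 points. Cell lines: 1321N1 astrocytoma and CHO expressing β1 or β2; EC50 via four-parameter fit, relative efficacy against isoproterenol.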
CC1(NC[C@H](O)c2cccc(C(F)(F)F)n2)CC1 [Compound 03-14] showed an EC50 of 10 to 100 nM.
In the case of COc1ccc(C[C@@H](C)NC[C@H](O)c2cccc(C(F)(F)F)n2)cc1 [Compound 03-15], the EC50 was under 10 nM.
With Cc1cc([C@@H](O)CNC(C)(C)C)nc(C(F)(F)F)c1 [Compound 03-19] the EC50 was 10 to 100 nM.
In the case of O[C@@H](CNC1Cc2ccccc2C1)c1cccc(C(F)(F)F)n1 [Compound 03-21], the EC50 was 10 to 100 nM.
Compound O[C@@H](CNC1CCC1)c1cccc(C(F)(F)F)n1 [Compound 03-33] has an EC50 of under 10 nM.
Work on CC(C)NC[C@H](O)c1cccc(C(F)(F)F)n1 [Compound 03-35] yielded an EC50 of 10 to 100 nM.
CC(C)(C)NC[C@H](O)c1cccc(OC(F)(F)F)n1 [Compound 03-37] gave an EC50 of under 10 nM.

Same assay, conditions: B2-AR; CHO-K cells; read-out: Average EC50 [Receptor subtype: B2-AR; Cell type: CHO-K]
CC1(NC[C@H](O)c2cccc(C(F)(F)F)n2)CC1 [Compound 03-14] showed a pEC50 of 7.00 to 8.00.
COc1ccc(C[C@@H](C)NC[C@H](O)c2cccc(C(F)(F)F)n2)cc1 [Compound 03-15] showed a pEC50 of over 8.00.
Cc1cc([C@@H](O)CNC(C)(C)C)nc(C(F)(F)F)c1 [Compound 03-19] showed a pEC50 of 7.00 to 8.00.
In the case of O[C@@H](CNC1Cc2ccccc2C1)c1cccc(C(F)(F)F)n1 [Compound 03-21], the pEC50 was 7.00 to 8.00.
Work on O[C@@H](CNC1CCC1)c1cccc(C(F)(F)F)n1 [Compound 03-33] yielded a pEC50 of over 8.00.
With CC(C)NC[C@H](O)c1cccc(C(F)(F)F)n1 [Compound 03-35] the pEC50 was 7.00 to 8.00.
In the case of CC(C)(C)NC[C@H](O)c1cccc(OC(F)(F)F)n1 [Compound 03-37], the pEC50 was over 8.00.

Each compound was assayed against β1-adrenergic receptor (Homo sapiens (Human), UniProt P08588) (assay: cAMP Gs dynamic HTRF assay, β1 expressing CHO cells). Details: B1-AR; CHO-K1 (HitHunter).
Chain of β1-adrenergic receptor (P08588 whole entry, species assumed): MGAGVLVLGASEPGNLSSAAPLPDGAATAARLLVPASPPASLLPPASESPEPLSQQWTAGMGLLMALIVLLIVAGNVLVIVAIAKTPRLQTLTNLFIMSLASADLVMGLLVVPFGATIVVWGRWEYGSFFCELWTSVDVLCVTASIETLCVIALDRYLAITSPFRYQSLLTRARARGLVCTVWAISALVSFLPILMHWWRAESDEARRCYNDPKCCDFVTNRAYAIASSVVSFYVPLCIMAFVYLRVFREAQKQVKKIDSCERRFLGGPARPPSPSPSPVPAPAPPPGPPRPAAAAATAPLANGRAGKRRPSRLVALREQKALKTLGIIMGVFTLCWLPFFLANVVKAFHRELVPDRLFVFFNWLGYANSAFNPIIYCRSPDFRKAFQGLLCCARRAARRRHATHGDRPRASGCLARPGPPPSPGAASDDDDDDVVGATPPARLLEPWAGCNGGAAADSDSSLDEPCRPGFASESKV
Format: cell-based
Outline: as §1
With O[C@@H](CNC1CCC1)c1cccc(C(F)(F)F)n1 [Compound 03-33] the “Average pEC50 [Receptor subtype: B1-AR; Cell type: CHO-K1 (HitHunter)]” value was “A (A > 8)”.

Same assay, conditions: B1-AR; CHO-K1 (HitHunter); read-out: Average pEC50 [Receptor subtype: B1-AR; Cell type: CHO-K1 (HitHunter)] (converted)
For CC1(NC[C@H](O)c2cccc(C(F)(F)F)n2)CC1 [Compound 03-14], the EC50 was 10 to 100 nM.
COc1ccc(C[C@@H](C)NC[C@H](O)c2cccc(C(F)(F)F)n2)cc1 [Compound 03-15] was tested, and the EC50 was under 10 nM.
Cc1cc([C@@H](O)CNC(C)(C)C)nc(C(F)(F)F)c1 [Compound 03-19] was tested, and the EC50 was 100 to 1000 nM.
For O[C@@H](CNC1Cc2ccccc2C1)c1cccc(C(F)(F)F)n1 [Compound 03-21], the EC50 was 100 to 1000 nM.
CC(C)NC[C@H](O)c1cccc(C(F)(F)F)n1 [Compound 03-35] gave an EC50 of under 10 nM.
For CC(C)(C)NC[C@H](O)c1cccc(OC(F)(F)F)n1 [Compound 03-37], the EC50 was 10 to 100 nM.

Same assay, conditions: B1-AR; CHO-K cells; read-out: Average EC50 [Receptor subtype: B1-AR; Cell type: CHO-K]
For CC1(NC[C@H](O)c2cccc(C(F)(F)F)n2)CC1 [Compound 03-14], the pEC50 was 7.00 to 8.00.
COc1ccc(C[C@@H](C)NC[C@H](O)c2cccc(C(F)(F)F)n2)cc1 [Compound 03-15] showed a pEC50 of over 8.00.
Cc1cc([C@@H](O)CNC(C)(C)C)nc(C(F)(F)F)c1 [Compound 03-19] gave a pEC50 of 6.00 to 7.00.
Compound O[C@@H](CNC1Cc2ccccc2C1)c1cccc(C(F)(F)F)n1 [Compound 03-21] has a pEC50 of 6.00 to 7.00.
Compound O[C@@H](CNC1CCC1)c1cccc(C(F)(F)F)n1 [Compound 03-33] has a pEC50 of over 8.00.
CC(C)NC[C@H](O)c1cccc(C(F)(F)F)n1 [Compound 03-35] showed a pEC50 of over 8.00.
Work on CC(C)(C)NC[C@H](O)c1cccc(OC(F)(F)F)n1 [Compound 03-37] yielded a pEC50 of 7.00 to 8.00.

These compounds were tested against β2 adrenergic receptors in human astrocytoma cells (1321N1) (Homo sapiens (Human), UniProt P07550) (assay: cAMP HTRF assay in human astrocytoma cells (1321N1)). Details: Endogenous receptor; 1321N1 cells; read-out: Average pEC50 [Receptor subtype: Endogenous; Cell type: 1321N1] (converted).
Chain of β2 adrenergic receptors in human astrocytoma cells (1321N1) (P07550 whole entry): as the sequence (P07550 whole entry, species assumed) above
Format: cell-based
Description: cAMP homogeneous time-resolved fluorescence (HTRF). Compound efficacy was determined using the cAMP Gs dynamic HTRF assay (Cisbio, catalog #62AM4PEC) largely following the manufacturer's instructions, also detailed below.
Compound preparation. […] Standard serial dilution curves were 10-point, 5-fold dilutions starting from a highest concentration of 10 μM. […] Assay plates were centrifuged at 500×g for 10 seconds. Compounds and IBMX were prepared at 2× final dose to compensate for addition of cells.
Cell preparation. 1× stimulation buffer, washing PBS (Dulbecco's phosphate-buffered saline, −Mg −Ca; Caisson Labs, catalog #PBL01), assay PBS (Dulbecco's phosphate-buffered saline, +Mg, +Ca; Caisson Labs, catalog #PBL02) and Versene (0.02% EDTA disodium salt solution in PBS without calcium or magnesium; Caisson Labs, catalog #EDL01) were pre-warmed to 37° C. Cells expressing beta-adrenergic receptor were washed in washing PBS to remove growth medium and then released from the surface by incubating with Versene for 5-10 minutes at 37° C. Cells were harvested using assay PBS, counted manually by hemocytometer or by an automated cell counter, pelleted by centrifugation (200×g, 5 minutes) and resuspended in 37° C. 1× stimulation buffer to a final density of 1.5×10^6 cells/mL. 5 μL of the suspended cell solution (7500 cell total) were added to all wells of the 384 well assay plate, the assay plate was covered with an Axygen® plate seal (Corning PCR-SP) and incubated in a humidified 37° C. environment supplemented with 5% CO2 for 30 minutes.
HTRF reagent addition, reading and data analysis. After 30 minutes of cell stimulation with test compound, the assay plates were centrifuged at 500×g for 10 seconds, and incubation was stopped with the addition of 5 μL cAMP-D2 acceptor, diluted 1:21 in detection and lysis buffer 2 (Cisbio 62CL2FDF) was added to all cells. Subsequently, 5 μL Anti-cAMP-Eu Donor, diluted 1:21 in detection and lysis buffer 2, was added to cells. Plates were sealed and reactions gently ‘vortexed’ at 900 rpm on a Heidolph Titramax 1000 for at least 30 minutes at room temperature. Plates were centrifuged again at 500×g for 10 seconds, and HTRF was measured using a Tecan Spark plate reader at 50 flashes per well. […] Potency estimates (EC50) were derived from the four-parameter nonlinear regression of the concentration-effect curve and an estimate of relative efficacy was determined by comparing the magnitude of the test compound HTRF signal window (min−max dose) with the signal window of the full agonist control, isoproterenol.
For CC1(NC[C@H](O)c2cccc(C(F)(F)F)n2)CC1 [Compound 03-14], the EC50 was 100 to 1000 nM.
In the case of COc1ccc(C[C@@H](C)NC[C@H](O)c2cccc(C(F)(F)F)n2)cc1 [Compound 03-15], the EC50 was under 10 nM.
Cc1cc([C@@H](O)CNC(C)(C)C)nc(C(F)(F)F)c1 [Compound 03-19] showed an EC50 of 100 to 1000 nM.
Compound O[C@@H](CNC1Cc2ccccc2C1)c1cccc(C(F)(F)F)n1 [Compound 03-21] has an EC50 of 10 to 100 nM.
O[C@@H](CNC1CCC1)c1cccc(C(F)(F)F)n1 [Compound 03-33] showed an EC50 of 10 to 100 nM.
For CC(C)NC[C@H](O)c1cccc(C(F)(F)F)n1 [Compound 03-35], the EC50 was 10 to 100 nM.
Work on CC(C)(C)NC[C@H](O)c1cccc(OC(F)(F)F)n1 [Compound 03-37] yielded an EC50 of under 10 nM.

Each compound was assayed against B3-AR (Homo sapiens (Human), UniProt P13945) (assay: cAMP potency assay, B3-AR expressing CHO-K1 cells). Details: read-out: Average pEC50 [Receptor subtype: B3-AR, Cell type: CHO-K1] (converted).
Chain of B3-AR (P13945 whole entry, species assumed): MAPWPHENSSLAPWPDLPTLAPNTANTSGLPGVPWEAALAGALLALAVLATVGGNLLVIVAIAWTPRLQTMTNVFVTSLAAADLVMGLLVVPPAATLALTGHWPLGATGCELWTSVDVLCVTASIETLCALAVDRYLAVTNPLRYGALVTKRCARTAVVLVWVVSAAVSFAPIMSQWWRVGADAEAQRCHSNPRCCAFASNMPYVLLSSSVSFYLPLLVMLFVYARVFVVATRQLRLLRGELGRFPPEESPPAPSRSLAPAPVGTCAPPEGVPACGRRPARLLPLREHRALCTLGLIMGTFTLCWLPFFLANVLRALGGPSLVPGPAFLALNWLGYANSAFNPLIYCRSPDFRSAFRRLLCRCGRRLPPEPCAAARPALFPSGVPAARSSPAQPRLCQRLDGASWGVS
Format: cell-based
CC1(NC[C@H](O)c2cccc(C(F)(F)F)n2)CC1 [Compound 03-14] gave an EC50 of over 1000 nM.
Compound COc1ccc(C[C@@H](C)NC[C@H](O)c2cccc(C(F)(F)F)n2)cc1 [Compound 03-15] has an EC50 of 100 to 1000 nM.
Cc1cc([C@@H](O)CNC(C)(C)C)nc(C(F)(F)F)c1 [Compound 03-19] was tested, and the EC50 was over 1000 nM.
For O[C@@H](CNC1Cc2ccccc2C1)c1cccc(C(F)(F)F)n1 [Compound 03-21], the EC50 was over 1000 nM.
O[C@@H](CNC1CCC1)c1cccc(C(F)(F)F)n1 [Compound 03-33] showed an EC50 of over 1000 nM.
Compound CC(C)NC[C@H](O)c1cccc(C(F)(F)F)n1 [Compound 03-35] has an EC50 of over 1000 nM.
CC(C)(C)NC[C@H](O)c1cccc(OC(F)(F)F)n1 [Compound 03-37] was tested, and the EC50 was 100 to 1000 nM.

From patent US10947196B2, “Beta adrenergic agonist and methods of using the same” (CURASEN THERAPEUTICS, INC., priority 2019, dated 2021)
